Where a name gives a salt, the structure may show the parent alone.
Test: HPLC stability following heating at 40° C. for 12 days under atmospheric pressure
Assay type: physicochemical
Method: column: Lichrospher RP8 (5 μm), 125×4 mm
The following table reports the HPLC data concerning the stability of Compound 1 and of Compound A (prepared as described in example 16 of WO 98/03519) following heating at 40° C. for 12 days under atmospheric pressure.
The used chromatographic method is that described in Example 3 and Example 4. The values of […] are in percent area.

[1] = 12 days 40° C., atmospheric pressure

Compound	HPLC mean peak area [1] [percent area]	main impurity, retention time 7 min, HPLC area [1] [percent area]	main impurity, retention time 8 min, HPLC area [1] [percent area]	main impurity, retention time 12 min, HPLC area [1] [percent area]	main impurity, retention time 14 min, HPLC area [1] [percent area]	main impurity, retention time 30 min, HPLC area [1] [percent area]	main impurity, retention time 31 min, HPLC area [1] [percent area]	HPLC mean peak area (t = 0) [percent area]	main impurity, retention time 7 min, HPLC area (t = 0) [percent area]	main impurity, retention time 8 min, HPLC area (t = 0) [percent area]	main impurity, retention time 12 min, HPLC area (t = 0) [percent area]	main impurity, retention time 14 min, HPLC area (t = 0) [percent area]	main impurity, retention time 30 min, HPLC area (t = 0) [percent area]	main impurity, retention time 31 min, HPLC area (t = 0) [percent area]
[NH2][Pt+]([NH2])([Cl])[NH]CCC[NH2+]CCCC[NH2+]CCC[NH][Pt+]([NH2])([NH2])[Cl] [Compound 1, bis{trans(diammine)(chloro)platinum(II)}-μ-(1,12-diamino-4,9-diazadodecane-N^1, N^12) dinitrate salt.2HNO3]	98.4	0.1	0.1	0.2	0.9	<0.1	0.2	98.5	0.1	0.1	0.1	0.8	<0.1	–
bis{trans(diammine)(chloro)platinum(II)}-μ-(1,12-diamino-4,9-diazadodecane-N^1, N^12)dichloride salt.2HCl [Compound A]	89.8	0.8	1.6	0.6	0.8	2.8	1.7	92.5	0.1	0.2	0.3	1.3	2.3	0.7
